# Read-outs that look alike come from different tables or passages of the source.
# Biological target: Escherichia coli DNA gyrase A/B tetramer (Escherichia coli (strain K12), UniProt P0AES4+P0AES6)
# Assay: DNA gyrase supercoiling activity fluorescence polarisation assay
# Assay type: biochemical
# Outline: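 Supercoiling reactions quenched with 40 nM 5′-BODIPY-FL triplex-forming oligonucleotide probe in pH 3.5 NaCl/sodium acetate buffer; after 60 min, fluorescence anisotropy read (ex 485/em 535 nm). IC50 by nonlinear regression, normalised to 0.8% DMSO (100% activity) and 5 μM ciprofloxacin (0% activity).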
# [1] = 5 nM enzyme, relaxed plasmid, 0.3 mM ATP, ambient temperature, read-out: E. coli DNA gyrase supercoiling IC50
SMILES,IC50 [1] [nM],IC50 [nM]
"CCOC(=O)c1noc2c(F)c3c(cc12)CC1(C(=O)NC(=O)NC1=O)[C@H]1[C@H](C)O[C@H](C)CN31 (relative stereo) [Example 134, (2R,4S,4aS)-rel-ethyl 11-fluoro-2,4-dimethyl-2′,4′,6′-trioxo-2,2′,3′,4,4a,4′,6,6′-octahydro-1H,1′H-spiro[isoxazolo[4,5-g][1,4]oxazino[4,3-a]quinoline-5,5′-pyrimidine]-8-carboxylate]",1000,
"Cc1noc2c(F)c3c(cc12)CC1(C(=O)NC(=O)NC1=O)[C@H]1[C@H](C)C[C@H](C)CN31 (relative stereo) [Example 77, (2S,4R,4aR)-rel-11-fluoro-2,4,8-trimethyl-1,2,3,4,4a,6-hexahydro-1′H-spiro[isoxazolo[4,5-g]pyrido[1,2-a]quinoline-5,5′-pyrimidine]-2′,4′,6′(3′H)-trione]",,300
"C[C@@H]1CN2c3c(cc4c(-n5cc(C(=O)N(C)C)cn5)noc4c3F)CC3(C(=O)NC(=O)NC3=O)[C@H]2[C@H](C)O1 (relative stereo) [Example 187, 1-[(2R,4S,4aS)-rel-11-fluoro-2,4-dimethyl-2′,4′,6′-trioxo-1,1′,2,3′,4,4′,4a,6′-octahydro-2′H,6H-spiro[1,4-oxazino[4,3-a][1,2]oxazolo[4,5-g]quinoline-5,5′-pyrimidin]-8-yl]-N,N-dimethyl-1H-pyrazole-4-carboxamide]",3300,
"Cc1cc(C(F)(F)F)nn1-c1noc2c(F)c3c(cc12)CC1(C(=O)NC(=O)NC1=O)[C@H]1[C@H](C)O[C@H](C)CN31 (relative stereo) [Example 27, (2R,4S,4aS)-rel-11-fluoro-2,4-dimethyl-8-[5-methyl-3-(trifluoromethyl)-1H-pyrazol-1-yl]-1,2,4,4a-tetrahydro-2′H,6H-spiro[isoxazolo[4,5-g][1,4]oxazino[4,3-a]quinoline-5,5′-pyrimidine]-2′,4′,6′(1′H,3′H)-trione]",7100,
"Cc1noc2c(F)c3c(cc12)CC1(C(=O)NC(=O)NC1=O)[C@H]1[C@H](C)O[C@H](C(F)(F)F)CN31 (relative stereo) [Example 149, (2S,4S,4aS)-rel-11-fluoro-4,8-dimethyl-2-(trifluoromethyl)-1,2,4,4a-tetrahydro-2′H,6H-spiro[isoxazolo[4,5-g][1,4]oxazino[4,3-a]quinoline-5,5′-pyrimidine]-2′,4′,6′(1′H,3′H)-trione]",4400,
"C[C@@H]1CN2c3c(nc4c(-c5nccn5C)noc4c3Cl)CC3(C(=O)NC(=O)NC3=O)[C@H]2[C@H](C)O1 (relative stereo) [Example 114, (2R,4S,4aS)-rel-11-Chloro-2,4-dimethyl-8-(1-methyl-1H-imidazol-2-yl)-2,4,4a,6-tetrahydro-1H,1′H-spiro[isoxazolo[4,5-g][1,4]oxazino[4,3-a][1,5]naphthyridine-5,5′-pyrimidine]-2′,4′,6′(3′H)-trione]",5200,
"C[C@@H]1CN2c3c(cc4c(-c5ccnc(NCCO)n5)noc4c3F)CC3(C(=O)NC(=O)NC3=O)[C@H]2[C@H](C)O1 [Example 171, (2R,4S,4aS)-11-fluoro-8-(2-(2-hydroxyethylamino)pyrimidin-4-yl)-2,4-dimethyl-2,4,4a,6-tetrahydro-1H,1′H-spiro[isoxazolo[4,5-g][1,4]oxazino[4,3-a]quinoline-5,5′-pyrimidine]-2′,4′,6′(3′H)-trione]",300,
"Cc1noc(C)c1-c1noc2c(F)c3c(cc12)CC1(C(=O)NC(=O)NC1=O)[C@H]1[C@H](C)O[C@H](C)CN31 (relative stereo) [Example 67, (2R,4S,4aS)-rel-8-(3,5-dimethyl-1,2-oxazol-4-yl)-11-fluoro-2,4-dimethyl-1,2,4,4a-tetrahydro-2′H,6H-spiro[1,4-oxazino[4,3-a][1,2]oxazolo[4,5-g]quinoline-5,5′-pyrimidine]-2′,4′,6′(1′H,3′H)-trione]",3200,
"C[C@@H]1CN2c3c(cc4c(-n5cc(C#N)c(N)n5)noc4c3F)CC3(C(=O)NC(=O)NC3=O)[C@H]2[C@H](C)O1 (relative stereo) [Example 33, 3-amino-1-[(2R,4S,4aS)-rel-11-fluoro-2,4-dimethyl-2′,4′,6′-trioxo-1,1′,2,3′,4,4′,4a,6′-octahydro-2′H,6H-spiro[1,4-oxazino[4,3-a][1,2]oxazolo[4,5-g]quinoline-5,5′-pyrimidin]-8-yl]-1H-pyrazole-4-carbonitrile]",1000,
"C[C@@H]1CN2c3c(cc4c(-n5cc(CO)cn5)noc4c3F)CC3(C(=O)NC(=O)NC3=O)[C@H]2[C@H](C)O1 (relative stereo) [Example 190, (2R,4S,4aS)-rel-11-fluoro-8-[4-(hydroxymethyl)-1H-pyrazol-1-yl]-2,4-dimethyl-1,2,4,4a-tetrahydro-2′H,6H-spiro[1,4-oxazino[4,3-a][1,2]oxazolo[4,5-g]quinoline-5,5′-pyrimidine]-2′,4′,6′(1′H,3′H)-trione]",2100,
"C[C@@H]1CN2c3c(cc4c(-c5nccs5)noc4c3Cl)CC3(C(=O)NC(=O)NC3=O)[C@H]2[C@H](C)O1 (relative stereo) [Example 48, (2R,4S,4aS)-rel-11-chloro-2,4-dimethyl-8-(1,3-thiazol-2-yl)-1,2,4,4a-tetrahydro-2′H,6H-spiro[1,4-oxazino[4,3-a][1,2]oxazolo[4,5-g]quinoline-5,5′-pyrimidine]-2′,4′,6′(1′H,3′H)-trione]",1000,
"Cc1ccc(-c2noc3c(F)c4c(cc23)CC2(C(=O)NC(=O)NC2=O)[C@H]2[C@H](C)O[C@H](C)CN42)cn1 (relative stereo) [Example 91, (2R,4S,4aS)-rel-11-fluoro-2,4-dimethyl-8-(6-methylpyridin-3-yl)-2,4,4a,6-tetrahydro-1H,1′H-spiro[isoxazolo[4,5-g][1,4]oxazino[4,3-a]quinoline-5,5′-pyrimidine]-2′,4′,6′(3′H)-trione]",1900,
"C[C@@H]1CN2c3c(nc4c(-c5cccnc5)noc4c3Cl)CC3(C(=O)NC(=O)NC3=O)[C@H]2[C@H](C)O1 (relative stereo) [Example 109, (2R,4S,4aS)-rel-11-chloro-2,4-dimethyl-8-(pyridyin-3-yl)-2,4,4a,6-tetrahydro-1H,1′H-spiro[isoxazolo[4,5-g][1,4]oxazino[4,3-a][1,5]naphthyridine-5,5′-pyrimidine]-2′,4′,6′(3′H)-trione]",500,
"C[C@@H]1CN2c3c(cc4c(C(=O)N5CCS(=O)(=O)CC5)noc4c3F)CC3(C(=O)NC(=O)NC3=O)[C@H]2[C@H](C)O1 (relative stereo) [Example 145, (2R,4S,4aS)-rel-8-[(1,1-dioxidothiomorpholin-4-yl)carbonyl]-11-fluoro-2,4-dimethyl-1,2,4,4a-tetrahydro-2′H,6H-spiro[isoxazolo[4,5-g][1,4]oxazino[4,3-a]quinoline-5,5′-pyrimidine]-2′,4′,6′(1′H,3′H)-trione]",5200,
"COCCNc1nccc(-c2noc3c(F)c4c(cc23)CC2(C(=O)NC(=O)NC2=O)[C@H]2[C@H](C)O[C@H](C)CN42)n1 [Example 170, (2R,4S,4aS)-11-fluoro-8-(2-(2-methoxyethylamino)pyrimidin-4-yl)-2,4-dimethyl-2,4,4a,6-tetrahydro-1H,1′H-spiro[isoxazolo[4,5-g][1,4]oxazino[4,3-a]quinoline-5,5′-pyrimidine]-2′,4′,6′(3′H)-trione]",700,
"COc1noc2c(F)c3c(cc12)CC1(C(=O)NC(=O)NC1=O)[C@H]1[C@H](C)O[C@H](C)CN31 (relative stereo) [Example 51, (2R,4S,4aS)-rel-11-fluoro-8-methoxy-2,4-dimethyl-1,2,4,4a-tetrahydro-2′H,6H-spiro[1,4-oxazino[4,3-a][1,2]oxazolo[4,5-g]quinoline-5,5′-pyrimidine]-2′,4′,6′(1′H,3′H)-trione]",1000,
"C[C@@H]1CN2c3c(cc4c(NCc5nccs5)noc4c3F)CC3(C(=O)NC(=O)NC3=O)[C@H]2[C@H](C)O1 (relative stereo) [Example 10, (2R,4S,4aS)-rel-11-fluoro-2,4-dimethyl-8-[(1,3-thiazol-2-ylmethyl)amino]-1,2,4,4a-tetrahydro-2′H,6H-spiro[1,4-oxazino[4,3-a][1,2]oxazolo[4,5-g]quinoline-5,5′-pyrimidine]-2′,4′,6′(1′H,3′H)-trione]",1900,
"C[C@@H]1CN2c3c(cc4c(-c5ncccn5)noc4c3F)CC3(C(=O)NC(=O)NC3=O)[C@H]2[C@H](C)O1 (relative stereo) [Example 148, (2R,4S,4aS)-rel-11-fluoro-2,4-dimethyl-8-(pyrimidin-2-yl)-1,2,4,4a-tetrahydro-2′H,6H-spiro[1,4-oxazino[4,3-a][1,2]oxazolo[4,5-g]quinoline-5,5′-pyrimidine]-2′,4′,6′(1′H,3′H)-trione]",900,
"C[C@@H]1CN2c3c(cc4c(N5CCCC5)noc4c3F)CC3(C(=O)NC(=O)NC3=O)[C@H]2[C@H](C)O1 (relative stereo) [Example 25, (2R,4S,4aS)-rel-11-fluoro-2,4-dimethyl-8-(pyrrolidin-1-yl)-1,2,4,4a-tetrahydro-2′H,6H-spiro[isoxazolo[4,5-g][1,4]oxazino[4,3-a]quinoline-5,5′-pyrimidine]-2′,4′,6′(1′H,3′H)-trione]",1500,
"C[C@@H]1CN2c3c(cc4c(C(=O)NC5CCOCC5)noc4c3F)CC3(C(=O)NC(=O)NC3=O)[C@H]2[C@H](C)O1 (relative stereo) [Example 146, (2R,4S,4aS)-rel-11-fluoro-2,4-dimethyl-2′,4′,6′-trioxo-N-(tetrahydro-2H-pyran-4-yl)-2,2′,3′,4,4a,4′,6,6′-octahydro-1H,1′H-spiro[isoxazolo[4,5-g][1,4]oxazino[4,3-a]quinoline-5,5′-pyrimidine]-8-carboxamide]",4900,
"C[C@@H]1CN2c3c(nc4c(-c5ccc(C#N)c(F)c5)noc4c3Cl)CC3(C(=O)NC(=O)NC3=O)[C@H]2[C@H](C)O1 (relative stereo) [Example 121, 4-((2R,4S,4aS)-rel-11-chloro-2,4-dimethyl-2′,4′,6′-trioxo-2,2′,3′,4,4a,4′,6,6′-octahydro-1H,1′H-spiro[isoxazolo[4,5-g][1,4]oxazino[4,3-a][1,5]naphthyridine-5,5′-pyrimidine]-8-yl)-2-fluorobenzonitrile]",600,
